# From patent publication US10442837B2, “Scorpion venom heat-resistant synthetic peptide and applications thereof” (priority 2016, dated 2019)
# Peptide text beside a SMILES is read from it.
# Experiments:
# [1] = tested on: lithium-pilocarpine epilepsy model rats; test: Lithium-pilocarpine refractory epilepsy chronic model, episodes; assay type: in vivo, SD rats; conditions: 300 mg/kg, n = 9
# Procedure: (1) Selection and groups of animals that 180 g healthy male SD rats are selected. Lithium-pilocarpine ip (intraperitoneal administration) 300 mg/kg is used to induce temporal lobe epilepsy episodes. After 15 days of acute epilepsy episode, epilepsy rats are randomly divided into a model group and a model administration group. […] The levels of epilepsy are observed and recorded, and graded according to Racine as the evaluation criteria.
# [2] = tested on: Kunming mice; test: Acute toxicity test, intraperitoneal injection; assay type: in vivo
# Source text: 1) Main Observation Indicators:
# (2) Minimal lethal dose (MLD): a dose that causes death in individual tested animals;
# (3) The highest dose of nontoxic reaction (highest nontoxic dose): that is, no observed adverse effect level ([…]), i.e. the highest dose under which no injury is found for animals in a certain period of time;
# (4) Minimum toxic reaction dose: minimum dose of toxic reaction in animals: that is the lowest dose of the toxic reaction in animals whose toxic responses are just caused.
# (1) Tested animals: Kunming mice, half male and half female (healthy adult, weight 19-20 g);
# (2) Subjects: SVHRSP: • a. source: BmK scorpion venom extract purchased from Henan Yichang Xinxin Scorpion Factory (May 28, 2012); • b. Lot No: P160418-CQ455216; • c. Content (or specification): 10 mg/piece; • d. Preservation conditions and preparation methods: −20° C. for long-term preservation, 4° C. for preservation within 7-10 d, and redissolved with millipore water when in use.
# (3) Administration Route: respectively ip (intraperitoneal injection) route (the largest volume commonly used in mice ip route administration is 0.1-1.0 ml/20 gBW) the optimal administration doses to the animals (the doses are different, but the administration capacity is identical) are selected according to the route of administration, and 0.2 ml/20 gBW is adopted for the ip administration routes in this experiment.
# According to the approximate lethal dose method, list the possible sequences:
# the possible maximum tolerance dose and the possible minimum lethal dose of the SVHRSP are estimated according to the acute toxicity test results of the former scorpion venom heat-resistant polypeptide on Kunming mice. Then, a dose sequence table containing several doses is designed according to the 50% incremental method:
# The possible lethal dose ranges (115.2, 76.8, 51.2, 34.1 mg/kg) are found from the estimated dose sequence list, where each dose is given to one animal, the minimum lethal dose and the maximum tolerated dose are measured, and then the dose between the two is given to an animal. If the animal under this dose doesn't die, the range between this dose and the minimum lethal dose is the approximate lethal dose range; if the animal under this dose dies, the range between this dose and the maximum tolerance dose is the approximate lethal dose range.
# [3] = tested on: Kunming mice; test: Acute toxicity test, intraperitoneal injection; assay type: in vivo; conditions: 78.6 mg/kgBW ip
smiles,measurement,setting,value
CCCC(CCC)C(=O)[O-].[Na+] [sodium valproate],Total Episode Averages superimposed ± Standard Deviation,[1]; First day,2.67 ± 0.85
same,Total Episode Averages superimposed ± Standard Deviation,[1]; First eight days,15.11 ± 2.73
same,Total Episode Averages superimposed ± Standard Deviation,[1]; First eleven days,18.89 ± 3.13
same,Total Episode Averages superimposed ± Standard Deviation,[1]; First fifteen days,23.56 ± 3.79
same,Total Episode Averages superimposed ± Standard Deviation,[1]; First five days,11.67 ± 2.24
same,Total Episode Averages superimposed ± Standard Deviation,[1]; First four days,9.56 ± 1.96
same,Total Episode Averages superimposed ± Standard Deviation,[1]; First fourteen days,22.67 ± 3.56
same,Total Episode Averages superimposed ± Standard Deviation,[1]; First nine days,16.33 ± 3.05
same,Total Episode Averages superimposed ± Standard Deviation,[1]; First seven days,13.89 ± 2.45
same,Total Episode Averages superimposed ± Standard Deviation,[1]; First six days,12.67 ± 2.30
same,Total Episode Averages superimposed ± Standard Deviation,[1]; First ten days,17.55 ± 2.91
same,Total Episode Averages superimposed ± Standard Deviation,[1]; First thirteen days,21.78 ± 3.58
same,Total Episode Averages superimposed ± Standard Deviation,[1]; First twelve days,20.56 ± 3.33
same,Total Episode Averages superimposed ± Standard Deviation,[1]; First two days,5.56 ± 1.27
CC(C)C[C@H](NC(=O)[C@@H](NC(=O)[C@@H](N)CCCCN)C(C)C)C(=O)N[C@@H](CC(N)=O)C(=O)NCC(=O)N1CCC[C@H]1C(=O)N[C@@H](CCC(=O)O)C(=O)N[C@@H](CCC(=O)O)C(=O)N[C@@H](CCC(=O)O)C(=O)N[C@@H](C)C(=O)N[C@@H](C)C(=O)N[C@@H](C)C(=O)N1CCC[C@H]1C(=O)N[C@@H](C)C(=O)N[C@@H](CCC(=O)O)C(=O)O [SVHRSP] (H-KVLNGPEEEAAAPAE-OH),Lethal (%),[2]; 115.2 mg/kgBW ip,0%
same,Survival (%),[2]; 115.2 mg/kgBW ip,100%
same,Lethal (%),[2]; 172.8 mg/kgBW ip,0%
same,Survival (%),[2]; 172.8 mg/kgBW ip,100%
same,Lethal (%),[2]; 500 mg/kgBW ip,0%
same,Survival (%),[2]; 500 mg/kgBW ip,100%
same,Lethal (%),[2]; 2000 mg/kgBW ip,0%
same,Survival (%),[2]; 2000 mg/kgBW ip,100%
same,Toxic Reaction,[2]; 2000 mg/kgBW ip,no any toxic reaction is observed
same,ratio of medicinal safety and pharmacodynamic activity (2000/0.05),[2]; ip 2000 mg/kg vs 0.05 mg/kg effective dose,"> 40,000 times"
same,"maximum non-toxic dose (highest nontoxic dose, no observed adverse effect level)","[2]; ip, up to 2000 mg/kg·BW",has not reached yet
same,Lethal (%),[3],0%
same,Survival (%),[3],100%
